Where “and” joins values, the source holds several entries; their conditions need not be identical. Equal entries are not always repeated. Where a SMILES comes first, the peptide text is derived from it. Where no end group is shown, it is not given here.

For orientation: IC50 means the concentration that gives 50% inhibition.

T1 sequence (P0A722 whole entry): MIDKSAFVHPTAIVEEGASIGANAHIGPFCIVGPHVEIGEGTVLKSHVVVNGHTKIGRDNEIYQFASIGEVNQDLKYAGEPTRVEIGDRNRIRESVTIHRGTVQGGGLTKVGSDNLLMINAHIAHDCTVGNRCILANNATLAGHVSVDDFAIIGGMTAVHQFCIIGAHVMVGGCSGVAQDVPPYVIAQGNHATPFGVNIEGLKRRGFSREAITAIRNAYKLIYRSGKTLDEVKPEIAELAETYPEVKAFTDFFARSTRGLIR

The first test has as its target T1, E. coli LpxA (Escherichia coli, UniProt P0A722).
Experiment: not given
To be noted: previous enzymatic evidence; cited from earlier work.
In the case of SSGWMLDPIAGKWSR [Peptide 920], the Mode of inhibition result is on record as “largely competitive with respect to ACP”.

For a further test, the target named is T1, E. coli LpxA. Nature of the test: LpxA acyltransferase inhibition assay ([α-32P]UDP-GlcNAc conversion, TLC). As to conditions: 1 µM UDP-GlcNAc, 1 µM R-3-hydroxymyristoyl-ACP, 1 nM LpxA, 30 °C, 10% DMSO; SD of triplicates. On the set-up: made in house; host or cells: E. coli BL21(DE3)/pLysE/pTO1. It is filed as biochemical. The protocol: The peptides were assayed for acyl transferase inhibitory activity under conditions where the concentrations of UDP-GlcNAc and R-3-hydroxymyristoyl-ACP were 1 µM each. […] Peptide CR21 and CR23 still have good inhibitory potential of 10 μM albeit lower than peptide CR20.
The LpxA enzymatic reaction monitors the conversion of [α-^32P]UDP-GlcNAc to [α-^32P]UDP-3-O-(R-3-hydroxymyristoyl)- GlcNAc. The assay components consist of 40 mM HEPES buffer, pH 8, 1 mg/ml BSA, 1 μM R-3-hydroxymyristoyl-ACP, and 1 μM [α-^32P]UDP-GlcNAc (2 × 10^6 cpm/nmol). […] The final concentration of DMSO was adjusted to 10% to match the peptide solvent in all enzymatic assays.
The reactions were started by the addition of 1 nM of LpxA and incubated at 30 °C for a maximum of 10 min. Three or four time points were collected during this time. Termination of the reaction was accomplished by the addition of 1 μl portions onto a silica thin layer chromatography (TLC) plate. The TLC plates were air dried for 10 min before developing in chloroform/methanol/water/acetic acid (25:15:4:2, v/v). Plates were exposed to PhosphorImager screens overnight, and the data were evaluated with Molecular Dynamics PhosphorImager equipped with ImageQuant software. […] To determine the IC50 at 30 °C, the data were fit to the following equations,1 vi/vc=IC50/(I+IC50) or1a %activity=100/(1+I/IC50) vi represents the initial rate, at given concentrations of inhibitor, vc represents the initial velocity of the control reaction without inhibitor, and I represents the inhibitor concentration. The IC50 determination represents the concentration of inhibitor needed to inhibit 50% of the enzyme activity.
Molecule SSGWMLDPIAGKWS [CR21] showed an IC50 of 12 ± 1.4 µM. Molecule GWMLDPIAGKWSR [CR19] showed an IC50 of 0.077 ± 0.003 µM.

`CSCC[C@H](NC(=O)[C@@H](N)Cc1c[nH]c2ccccc12)C(=O)N[C@@H](CC(C)C)C(=O)N[C@@H](CC(=O)O)C(=O)O` [CR26, WMLD] (H-WMLD-OH) displayed a 50% inhibitory concentration (IC50) greater than 100 µM. GWMLDPIAGKW [CR23] returned an IC50 of 10 ± 0.3 µM. On to GWMLDPIA [CR24], for which the 50% inhibitory concentration (IC50) was greater than 100 µM. Same read-out and setting: the result for WMLDPI [CR25, WMLDPI] reads greater than 100 µM.

As to WMLDPIAGKWSR [CR20], the 50% inhibitory concentration (IC50) is ~0.05 µM and 0.05 µM. The same measure, in the same setting: the result for SSGWMLDPIAGKW [CR22] reads 9 ± 2.2 µM.

Another test deals with E. coli.
Experiment: not given
To be noted: peptide expressed fused to GST in E. coli; cited from earlier work.
Take SSGWMLDPIAGKWSR [Peptide 920]: the Bacterial growth result is “inhibited bacterial growth”.
